Assay results: patent US9737517B2, “Pharmaceutical use of hexahydro-dibenzo[a,g]quinolizine compounds” (SHANGHAI INSTITUTE OF MATERIA MEDICA, CHINESE ACADEMY OF …, priority 2013, dated 2017)
Converted amounts (≈) assume the structure as drawn. “And” between values parts separate entries of the source, which are not always exact repeats. Identical values can stand only once. Like-named read-outs stand apart in the source and are kept apart here.

Experiments:
[1] = test system: SD rats; experiment: Phenylephrine-induced intraurethral pressure (IUP) and arterial blood pressure (MBP) elevation in anesthetized rats; assay type: in vivo; details: anesthetized male SD rats; for inhibition of phenylephrine-induced intraurethral pressure (IUP) elevation / inhibition of phenylephrine-induced peripheral arterial blood pressure (MBP) elevation: intraduodenal administration
From the text: Male SD rats (200-450 g) were anesthetized with an i.p. administration of urethane (1.25 g/kg). The urinary bladder, prostate, and urethra were exposed through an abdominal midline and symphysis pubica incision. A catheter was placed into the prostatic urethra through the bladder dome and secured at bladder neck (vesico-urethral junction) with a silk suture. The distal urethra under pubica was closed. The other side of the catheter was connected to a pressure transducer to measure the intraurethral pressure (IUP). After separating the duodenum and cutting open at about 2 cm from the stomach pylorus, intubating and performing purse-string suture, the test sample was supplied. Then, the median carotid incision was performed, carotid artery was separated, and the arterial blood pressure was measured by pressure transducer connected to artery cannula. Be careful not to hurt the nerves and blood vessels throughout the procedure. After surgery, a small amount (0.1˜0.2 mL) of saline was injected to balance the intraurethral pressure at around 10 cm of water. Then an intravenous injection at a concentration of 30 μg/mL of […] 1 mL/kg was performed before administration and 5 min, 30 min, 1 h, 1.5 h, 2 h, 3 h after administration to induce intraurethral pressure elevation. (If the effect was stable or weakened, then the experiment was ended.) The changes of intraurethral pressure and blood pressure induced by phenylephrine in rats were observed and recorded at different time points before and after administration.

[2] = Pharmacokinetics study in rats (gavage and intravenous); assay type: in vivo, SD rats; details: rat
Description: (§1) Gavage administration to rats. 3 healthy SD rats (male, weighed 200-220 g) were fasted for 12 hours before the administration but were allowed to drink water. Compound DC037009 was formulated with 10% DMSO/10% Tween 80/80% saline and was administered by 20 mg/kg dose and the dosing volume was 10 mL/kg.
as §1, with “Intravenous administration” for “Gavage administration”, “administered via the rat tail vein injection” for “administered”, “by 10” for “by 20”, “was 5” for “was 10”
Intravenous administration: 5 min, 0.25, 0.5, 1.0, 2.0, 3.0, 5.0, 7.0, 9.0 and 24 hrs after administration.
At the above time points, 0.3 mL blood obtained from post-eye venous plexus of rat was set into a heparinized tube, which was 11000 rpm centrifuged for 5 min, and the plasma was separated and frozen at −20° C. in a refrigerator.

[3] = In vitro metabolism in monkey liver microsomes; assay type: in vitro ADME
Description: (§2) The total volume of each incubation system was 200 μL, and the medium was 100 mM phosphate buffer solution (PBS, pH7.4) comprising a final concentration of 3 μM DC037009 and 2 mM NADPH. A37° C. water bath was used for incubation. After 3 minutes of pre-incubation, various liver microsomes protein were added into the buffer-substrate-cofactors mixture to start reaction. The concentration of liver microsomal protein of various species was 1.0 mg/mL. After reacting 60 min, the reaction was terminated with isovolumetric ice-cold acetonitrile. The total volume of blank was 200 μL, and the medium was 100 mM phosphate buffer solution (PBS, pH 7.4), comprising a final concentration of 3 μM DC037009 and heat inactivated microsomal proteins. All incubation samples were double.
(§3) A 150 μL sample from each of double incubation samples was mixed. A 300 μL of acetonitrile was added, mixed by vortexing for 1 min, and centrifuged 5 min (11000 rpm). The supernatant was placed in a 10 mL tube, and dried in 40° C. with nitrogen stream. The residue was dissolved with 100 μL methanol/water (1:9, v/v). A 10 μL sample was taken for UPLC/Q-TOF MS analysis.

[4] = In vitro metabolism in dog liver microsomes; assay type: in vitro ADME
Description: as §2, §3

[5] = molecular target: hERG (Homo sapiens, UniProt Q12809); experiment: Inhibition effect on hERG; assay type: cell-based
[6] = test system: rat seminal vesicle; experiment: Seminal vesicle contraction caused by electrical stimulation of hypogastric nerve in normal rats; assay type: in vivo; details: P>0.05
From the text: Effect of DC037009 on Seminal Vesicle Contraction Caused by Electrical Stimulation of Hypogastric Nerve in Normal Rats

[7] = Acute toxicity experiment on SD rats by oral gavage; assay type: in vivo; details: rat, in vivo, single dose, oral gavage, read-out: maximum tolerated dose (MTD)
Description: (§4) SD rats were administered compound DC037009 with single dose of 500 and 1000 mg/kg by oral gavage.

[8] = test system: SD rats; experiment: as above; assay type: in vivo; details: single dose of 500 and 1000 mg/kg by oral gavage
Description: as §4

[9] = Solubility in different pH solution and pH changes of the solution; assay type: physicochemical
[10] = male, SD, plasma, po, 20 mg/kg, gavage 20 mg/kg, individual animals 1-3
[11] = male, SD, plasma, po, 20 mg/kg, gavage 20 mg/kg, mean of 3
[12] = gavage 20 mg/kg, individual animals 1-3, 20 mg/kg
[13] = 3 μM DC037009, 1.0 mg/mL microsomal protein, NADPH, 60 min, UPLC/Q-TOF MS
[14] = pH = 1 solution after adding compound
[15] = pH = 2 solution after adding compound
[16] = pH = 4 solution after adding compound
[17] = pH = 6 solution after adding compound
[18] = pH = 8 solution after adding compound

Sequence of hERG (Q12809 whole entry): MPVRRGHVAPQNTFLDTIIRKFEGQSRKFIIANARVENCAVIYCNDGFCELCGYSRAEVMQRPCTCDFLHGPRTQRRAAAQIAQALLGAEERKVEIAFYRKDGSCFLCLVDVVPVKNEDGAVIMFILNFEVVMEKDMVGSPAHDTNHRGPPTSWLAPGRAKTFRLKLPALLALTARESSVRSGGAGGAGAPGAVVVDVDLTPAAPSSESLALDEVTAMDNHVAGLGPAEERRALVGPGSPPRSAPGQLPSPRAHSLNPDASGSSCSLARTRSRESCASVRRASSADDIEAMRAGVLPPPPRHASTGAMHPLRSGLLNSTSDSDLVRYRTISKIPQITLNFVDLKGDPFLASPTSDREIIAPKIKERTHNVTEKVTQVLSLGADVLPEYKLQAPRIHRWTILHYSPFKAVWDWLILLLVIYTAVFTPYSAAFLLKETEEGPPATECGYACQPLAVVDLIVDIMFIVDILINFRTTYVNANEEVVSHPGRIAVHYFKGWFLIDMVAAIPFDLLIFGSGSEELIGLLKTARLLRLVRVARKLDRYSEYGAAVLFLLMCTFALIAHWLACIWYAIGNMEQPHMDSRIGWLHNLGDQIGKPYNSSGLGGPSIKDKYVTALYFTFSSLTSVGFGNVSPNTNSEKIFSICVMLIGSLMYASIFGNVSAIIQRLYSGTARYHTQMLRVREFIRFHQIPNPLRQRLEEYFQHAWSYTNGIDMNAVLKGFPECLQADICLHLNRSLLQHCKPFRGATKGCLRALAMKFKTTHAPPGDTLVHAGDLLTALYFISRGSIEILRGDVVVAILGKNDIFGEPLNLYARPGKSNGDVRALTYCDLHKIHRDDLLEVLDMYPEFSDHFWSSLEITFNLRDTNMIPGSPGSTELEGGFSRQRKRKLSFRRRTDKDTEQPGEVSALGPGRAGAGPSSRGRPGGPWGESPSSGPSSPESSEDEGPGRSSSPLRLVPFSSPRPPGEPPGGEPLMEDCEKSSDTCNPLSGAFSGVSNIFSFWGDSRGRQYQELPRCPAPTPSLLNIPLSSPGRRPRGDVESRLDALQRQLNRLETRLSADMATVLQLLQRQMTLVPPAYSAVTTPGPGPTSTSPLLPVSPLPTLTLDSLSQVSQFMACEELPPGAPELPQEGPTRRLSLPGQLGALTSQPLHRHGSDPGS

## COc1cc2c(cc1OC)CN1CCc3cc4c(cc3[C@@H]1C2)OCO4 [DC037009, S-(−)-2,3-methylenedioxy-10,11-dimethoxy-5,8,13,13a-tetrahydro-6H-dibenzo[a,g]quinolizine]
[1]; IUP versus MBP
  selectivity to urethra (rank order): DC037009>Silodosin
[1]
  onset dose compared with silodosin: significantly lower than that of positive drug silodosin
  rank order of inhibition of phenylephrine-induced blood pressure elevation: Silodosin>DC037009
  rank order of inhibition of phenylephrine-induced intraurethral pressure elevation: DC037009>Silodosin
  inhibition of phenylephrine-induced intraurethral pressure (IUP) elevation: dose-dependently inhibit
  inhibition of phenylephrine-induced peripheral arterial blood pressure (MBP) elevation: dose-dependently inhibit
[2]; male, SD, plasma, oral, gavage 20 mg/kg versus intravenous 10 mg/kg
  bioavailability: 34.2%
[2]; male, SD, plasma, intravenous injection 10 mg/kg, read-out: plasma clearance rate CL (converted)
  clearance: 39.7 mL/min/kg
[2]; male, SD, plasma, intravenous injection 10 mg/kg, read-out: volume distribution stead state Vss
  Vd: 3.49 ± 0.24 L/kg
[2]; male, SD, plasma, iv, 10 mg/kg, intravenous injection 10 mg/kg
  half-life: 5.44 ± 0.85 h
[2]; male, SD, plasma, iv, 10 mg/kg, intravenous injection 10 mg/kg, read-out: AUC0-t
  AUC0-t: 4200 ± 141 ng·h/mL
[2]; [10]
  AUC(0-inf): 2630 ng·h/mL
  half-life: 4.2 h
[2]; male, SD, plasma, po, 20 mg/kg, gavage 20 mg/kg, individual animals 1-3, read-out: AUC0-t
  AUC0-t: 2570 ng·h/mL
[2]; male, SD, plasma, po, 20 mg/kg, gavage 20 mg/kg, individual animals 1-3, read-out: Cmax
  Cmax: 289 ng/mL
[2]; male, SD, plasma, po, 20 mg/kg, gavage 20 mg/kg, individual animals 1-3, read-out: MRT
  MRT: 6.45 h
[2]; male, SD, plasma, po, 20 mg/kg, gavage 20 mg/kg, individual animals 1-3, read-out: Tmax
  Tmax: 0.5 h
[2]; [11]
  AUC(0-inf): 2890 ng·h/mL
  half-life: 3.26 ± 0.82 h
[2]; male, SD, plasma, po, 20 mg/kg, gavage 20 mg/kg, mean of 3, read-out: AUC0-t
  AUC0-t: 2870 ± 798 ng·h/mL
[2]; male, SD, plasma, po, 20 mg/kg, gavage 20 mg/kg, mean of 3, read-out: Cmax
  Cmax: 453 ± 147 ng/mL
[2]; male, SD, plasma, po, 20 mg/kg, gavage 20 mg/kg, mean of 3, read-out: MRT
  MRT: 5.04 h
[2]; male, SD, plasma, po, 20 mg/kg, gavage 20 mg/kg, mean of 3, read-out: Tmax
  Tmax: 0.67 ± 0.29 h
[2]; [12]
  AUC0-t: 2260 ng·h/mL and 3771 ng·h/mL
  AUC0-∞: 2265 ng·h/mL and 3779 ng·h/mL
  Cmax: 494 ng/mL and 575 ng/mL
  MRT: 4.00 h and 4.67 h
  Tmax: 1.00 h
  t1/2: 2.89 h and 2.70 h
[2]; gavage 20 mg/kg, mean of 3, 20 mg/kg
  AUC0-t: 2260 ng·h/mL
[3]; [13]
  Mass area, monkey: 1.6
[3]; 60 min incubation
  kinds of metabolites detected in monkey liver microsome: seven
  metabolic stability in monkey liver microsome: unstable
[4]; [13]
  Mass area, dog: 171.3
[4]; 60 min incubation
  kinds of metabolites detected in dog liver microsome: six
  metabolic stability in dog liver microsome: in second place
[5]
  antagonistic activity to α1A-receptor relative to inhibitory activity on hERG: 272 folds
[5]; hERG
  IC50: 8.1 µM
  Maximum inhibition rate (%): 84.7%
[6]
  effect on contraction amplitude and area under contraction curve in rat seminal vesicle induced by electrical stimulation: no significant inhibitive effect
[7]
  MTD: 1000 mg/kg
[8]
  changes after anatomy: no obvious drug-related changes
[9]
  pH of solution after adding compound: would increase
  solubility in acidic solution compared with alkaline solution: greater than that in alkaline solution
[9]; pH 2 solution, pH 2, simulated gastric fluid, pH = 2 solution, read-out: Solubility (1)
  solubility: > 1000 µg/mL
[9]; pH 2 solution, pH 2, simulated gastric fluid, pH = 2 solution, read-out: Solubility (2)
  solubility: > 1000 µg/mL
[9]; pH 4 solution, pH 4, aqueous buffer, pH = 4 solution, read-out: Solubility (1)
  solubility: 401 µg/mL (≈ 1180 µM)
[9]; pH 4 solution, pH 4, aqueous buffer, pH = 4 solution, read-out: Solubility (2)
  solubility: 403 µg/mL (≈ 1190 µM)
[9]; pH = 1 solution
  Dissolving capacity: Slightly soluble
[9]; [14]
  pH value (1): 1.09
  pH value (2): 1.03
[9]; pH = 1 solution, pH 1, simulated gastric fluid, pH = 1 solution, read-out: Solubility (1)
  solubility: > 1000 µg/mL
[9]; pH = 1 solution, pH 1, simulated gastric fluid, pH = 1 solution, read-out: Solubility (2)
  solubility: > 1000 µg/mL
[9]; pH = 2 solution
  Dissolving capacity: Slightly soluble
[9]; [15]
  pH value (1): 2.02
  pH value (2): 2.07
[9]; pH = 4 solution
  Dissolving capacity: Slightly soluble
[9]; [16]
  pH value (1): 5.02
  pH value (2): 5.10
[9]; pH = 6 solution
  Dissolving capacity: Sparingly
[9]; [17]
  pH value (1): 6.11
  pH value (2): 6.14
[9]; pH = 6 solution, pH 6, aqueous buffer, pH = 6 solution, read-out: Solubility (1)
  solubility: 46 µg/mL (≈ 136 µM)
[9]; pH = 6 solution, pH 6, aqueous buffer, pH = 6 solution, read-out: Solubility (2)
  solubility: 50.2 µg/mL (≈ 148 µM)
[9]; pH = 8 solution
  Dissolving capacity: Sparingly
[9]; [18]
  pH value (1): 8.06
  pH value (2): 8.07
[9]; pH = 8 solution, pH 8, aqueous buffer, pH = 8 solution, read-out: Solubility (1)
  solubility: < 10 µg/mL
[9]; pH = 8 solution, pH 8, aqueous buffer, pH = 8 solution, read-out: Solubility (2)
  solubility: < 10 µg/mL

## C[C@H](Cc1cc2c(c(C(N)=O)c1)N(CCCO)CC2)NCCOc1ccccc1OCC(F)(F)F [Silodosin, reference compound]
[1]
  inhibition of phenylephrine-induced intraurethral pressure (IUP) elevation: dose-dependently inhibit
  inhibition of phenylephrine-induced peripheral arterial blood pressure (MBP) elevation: dose-dependently inhibit
